Results from patent US6545182B2, “Methods and compositions for modulating alpha adrenergic receptor activity” (Allergan Sales, Inc., priority 2000, dated 2003).

Experiments:
[1] = molecular target: T1, alpha 2A adrenergic receptor (Homo sapiens, UniProt P08913); test: RSAT (Receptor Selection and Amplification Technology) assay, alpha 2A; type: cell-based; details: NIH-3T3 cells cotransfected with receptor and Gq/i5
T1 construct: expressed in transfected cells; host or cells: NIH-3T3 cells, transient cotransfection by calcium phosphate
T1 sequence (P08913 1-465): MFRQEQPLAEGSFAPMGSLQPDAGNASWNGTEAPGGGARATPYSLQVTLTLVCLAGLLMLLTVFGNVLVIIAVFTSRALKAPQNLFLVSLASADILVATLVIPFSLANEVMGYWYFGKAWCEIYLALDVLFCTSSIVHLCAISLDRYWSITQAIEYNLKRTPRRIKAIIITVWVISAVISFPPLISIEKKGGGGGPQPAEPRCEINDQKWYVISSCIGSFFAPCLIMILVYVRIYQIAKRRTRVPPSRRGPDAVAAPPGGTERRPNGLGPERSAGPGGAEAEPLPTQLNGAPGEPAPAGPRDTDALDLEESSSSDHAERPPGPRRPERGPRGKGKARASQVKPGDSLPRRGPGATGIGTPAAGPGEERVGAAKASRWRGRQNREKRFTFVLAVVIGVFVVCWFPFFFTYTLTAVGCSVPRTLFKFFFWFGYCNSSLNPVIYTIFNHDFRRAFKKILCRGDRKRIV
Outline: (§1)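 NIH-3T3 cells cotransfected with β-galactosidase marker, human alpha2 receptor and hybrid Gq/i5, incubated with drug in triplicate 72-96 hr at 37°. Proliferation read as β-galactosidase activity (o-nitrophenyl-β-D-galactopyranoside, overnight 30°, OD 420 nm); EC50 and efficacy relative to brimonidine maximal effect.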

[2] = molecular target: T2, alpha 2B adrenergic receptor (Homo sapiens, UniProt P18089); test: RSAT (Receptor Selection and Amplification Technology) assay, alpha 2B; type: cell-based; details: for EC50: NIH-3T3 cells cotransfected with receptor and Gq/i5; for efficacy or intrinsic activity (value in parentheses) Alpha 2B: ratio of maximal effect to that of standard full agonist brimonidine
T2 construct: expressed in transfected cells; host or cells: NIH-3T3 cells, transient cotransfection by calcium phosphate
T2 sequence (P18089 1-450): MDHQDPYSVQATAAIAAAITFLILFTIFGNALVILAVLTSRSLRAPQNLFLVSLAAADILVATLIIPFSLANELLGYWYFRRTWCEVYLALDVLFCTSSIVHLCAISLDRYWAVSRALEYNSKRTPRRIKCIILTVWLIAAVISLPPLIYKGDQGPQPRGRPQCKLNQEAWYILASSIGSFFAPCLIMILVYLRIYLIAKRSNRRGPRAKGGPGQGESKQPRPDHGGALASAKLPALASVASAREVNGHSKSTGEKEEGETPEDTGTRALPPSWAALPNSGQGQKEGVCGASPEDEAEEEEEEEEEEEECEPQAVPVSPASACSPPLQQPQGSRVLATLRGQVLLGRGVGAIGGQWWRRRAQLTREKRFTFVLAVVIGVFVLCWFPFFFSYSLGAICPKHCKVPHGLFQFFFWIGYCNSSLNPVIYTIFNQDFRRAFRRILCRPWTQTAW
Outline: as §1

[3] = molecular target: T3, alpha 2C adrenergic receptor (Homo sapiens, UniProt P18825); test: RSAT (Receptor Selection and Amplification Technology) assay, alpha 2C; type: cell-based; details: for EC50: NIH-3T3 cells cotransfected with receptor and Gq/i5
T3 construct: expressed in transfected cells; host or cells: NIH-3T3 cells, transient cotransfection by calcium phosphate
T3 sequence (P18825 1-462): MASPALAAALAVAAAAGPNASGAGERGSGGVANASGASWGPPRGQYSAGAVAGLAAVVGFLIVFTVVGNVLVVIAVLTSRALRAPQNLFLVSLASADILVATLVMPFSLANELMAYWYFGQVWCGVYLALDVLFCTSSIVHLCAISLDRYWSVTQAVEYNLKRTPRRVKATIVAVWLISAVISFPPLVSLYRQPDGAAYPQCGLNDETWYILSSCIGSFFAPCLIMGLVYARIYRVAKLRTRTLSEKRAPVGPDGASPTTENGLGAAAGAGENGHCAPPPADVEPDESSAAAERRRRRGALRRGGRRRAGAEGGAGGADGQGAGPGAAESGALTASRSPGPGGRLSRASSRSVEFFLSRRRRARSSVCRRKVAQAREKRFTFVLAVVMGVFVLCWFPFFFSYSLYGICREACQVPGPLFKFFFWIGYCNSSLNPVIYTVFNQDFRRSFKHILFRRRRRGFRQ
Outline: as §1

[4] = tested on: rats with ligated L5 and L6 spinal nerves; test: rat spinal nerve ligation allodynia model (chronic pain); type: in vivo; details: for reduction of the response to tactile stimuli that indicate tactile allodynia: von Frey hairs
Description: (§2) The physiological activity of these compounds was tested using four models: a rat locomotor model to assess sedation, an assay of cardiovascular activity in monkeys, a rat thermal paw withdrawal assay (Dirig et al., J. Neurosci. Methods 76:183-191 (1997) to test the alleviation of acute pain, and the rat spinal nerve ligation allodynia model (Kim and Chung, Pain 50:355-363 (1992) to assess the alleviation of neuropathic pain and central sensitization typical of chronic pain. As is known to those of skill in the art, these tests are established pharmacological methods for determining sedation, cardiovascular effects, acute pain and chronic pain, respectively, of pharmaceutical agents.
A model for chronic pain (in particular peripheral neuropathy such as causalgia) involves the surgical ligation of the L5 (and optionally the L6) spinal nerves on one side in experimental animals. Rats recovering from the surgery gain weight and display a level of general activity similar to that of normal rats. However, these rats develop abnormalities of the foot, wherein the hindpaw is moderately everted and the toes are held together. More importantly, the hindpaw on the side affected by the surgery appears to become sensitive to pain from low-threshold mechanical stimuli, such as that producing a faint sensation of touch in a human, within about 1 week following surgery. This sensitivity to normally non-painful touch is called “tactile allodynia” and lasts for at least two months. The response includes lifting the affected hindpaw to escape from the stimulus, licking the paw and holding it in the air for many seconds. None of these responses is normally seen in the control group.
Rats are anesthetized before surgery. The surgical site is shaved and prepared either with betadine or Novacaine. Incision is made from the thoracic vertebra Xlll down toward the sacrum. Muscle tissue is separated from the spinal vertebra (left side) at the L4-S2 levels. The L6 vertebra is located and the transverse process is carefully removed with a small rongeur to expose the L4-L6 spinal nerves. The L5 and L6 spinal nerves are isolated and tightly ligated with 6-0 silk thread. The same procedure is done on the right side as a control, except no ligation of the spinal nerves is performed.
A complete hemostasis is confirmed, then the wounds are sutured. A small amount of antibiotic ointment is applied to the incised area, and the rat is transferred to the recovery plastic cage under a regulated heat-temperature lamp. On the day of the experiment, at least seven days after the surgery, six rats per test group are administered the test drugs by intraperitoneal (i.p.) injection or oral gavage. For i.p. injection, the compounds are formulated in approximately 50% DMSO and given in a volume of 1 ml/kg body weight. FORMULA 2 was tested at doses ranging between 1 and 300 μg /kg, FORMULA 3 was tested at doses between 0.1 and 3 mg/kg and FORMULA 4 was tested at doses of 0.3 and 3 mg/kg. FORMULA 2 was also administered by oral gavage at doses of 0.1, 0.3 and 1 mg/kg body weight to 24-hour fasted rats. A volume equal to 1 ml/kg body weight of an appropriate concentration (i.e. 1 mg/ml for a 1 mg/kg dose) of FORMULA 2 formulated in approximately 50% DMSO was injected using an 18-gauge, 3-inch gavage needle that is slowly inserted through the esophagus into the stomach.
Tactile allodynia is measured prior to and 30 minutes after drug administration using von Frey hairs that are a series of fine hairs with incremental differences in stiffness. Rats are placed in a plastic cage with a wire mesh bottom and allowed to acclimate for approximately 30 minutes. The von Frey hairs are applied perpendicularly through the mesh to the mid-plantar region of the rats' hindpaw with sufficient force to cause slight buckling and held for 6-8 seconds. The applied force has been calculated to range from 0.41 to 15.1 grams. If the paw is sharply withdrawn, it is considered a positive response. […]

Sprague-Dawley rats = test: rat locomotor model to assess sedation; type: in vivo; details: 30 minutes after injection, vs vehicle controls
Description: as §2
To test sedation, six male Sprague-Dawley rats were given up to 3 mg/kg of each compound in a saline or DMSO vehicle by intraperitoneal injection (i.p.). Sedation was graded 30 minutes following administration of the drug by monitoring locomotor skills as follows.
The Sprague-Dawley rats are weighed and 1 ml/kg body weight of an appropriate concentration (i.e. 3 mg/ml for a final dose of 3 mg/kg) drug solution is injected intraperitoneally. FORMULA 3 is formulated in approximately 10% DMSO and FORMULA 2 and FORMULA 4 are formulated in 50% DMSO. The results are compared to 29 historical controls that were injected with 1 ml/kg saline or 50% DMSO. Rat activity is then determined 30 minutes after injection of the drug solution. Rats are placed in a dark covered chamber and a digicom analyzer (Omnitech Electronic) quantitates their exploratory behavior for a five-minute period. The machine records each time the rat interrupts an array of 32 photoelectric beams in the X and Y orientation.

patient two = test: treatment of visceral pain in a colon cancer patient; type: in vivo, human; details: intravenous infusion twice daily, after two days
Excerpt: patient two suffering from colon cancer and undergoing chemotherapy experiences severe visceral pain associated with this primary condition. Treatment of this pain with opiates have been ineffective to provide substantial relief.
The patient is given a therapeutic amount of FORMULA 3 by intravenous infusion in a pharmaceutically acceptable vehicle. The treatment is given twice daily.
Under the same facts as Example 7, except the patient is given FORMULA 2 instead of FORMULA 3.

patient one = test: treatment of allodynia resulting from shingles in a patient; type: in vivo, human; details: oral dose in capsule form, two days' treatment
Excerpt: person one in generally good physical condition suffers from serious pain to their upper body due caused by contact of their skin with their clothing. The patient is unable to wear clothing on their upper body without severe pain.
The patient is given a therapeutically effective oral dose of FORMULA 3 in capsule form as needed for the treatment of pain.
Same facts as in Example 5, except the patient is given a therapeutically effective oral dose of FORMULA 2 in capsule form as needed for the treatment of pain.

SMILES | EC50 [1] [nM] | EC50 [2] [nM] | efficacy or intrinsic activity (value in parentheses) Alpha 2B [2] | EC50 [3] [nM] | further results
OCCNC(=S)NCc1cc(Br)c(F)c(F)c1F | ≥ 210000 | 512 | 1.07 | ≥ 210000 | 
Cc1cc(CNC(=S)NCCO)c(F)c(F)c1F | ≥ 210000 | 120 | 0.92 | ≥ 210000 | 
OCCNC(=S)NCc1cccc(Cl)c1F [FORMULA 2, 1-(3-chloro-2-fluorobenzyl)-3-(2-hydroxyethyl)-thiourea] |  |  |  |  | reduction of the response to tactile stimuli that indicate tactile allodynia ([4]; 30 minutes after drug): able to reduce the response to the tactile stimuli; percent reversal of allodynia ([4]; i.p. 10 μg/kg): 85%; percent reversal of allodynia ([4]; i.p. 30 μg/kg): 90%; percent reversal of allodynia ([4]; i.p. 100 μg/kg): 95%; percent reversal of allodynia ([4]; i.p. 300 μg/kg): 92%; percent reversal of allodynia ([4]; i.p. dose of 3 μg/kg): 55%; alleviation of allodynic pain ([4]; oral doses ranging from 0.1 to 1 mg/kg, 24-hour fasted rats): 82-86%; reduction in the exploratory activity of the rats (sedation) (Sprague-Dawley rats; 1 mg/kg i.p.): none of the compounds caused a statistically significant reduction; visceral pain, patient report (patient two): significant alleviation; allodynia resulting from shingles, patient report (patient one): markedly reduced
OCCNC(=S)NCc1ccc(F)cc1 [FORMULA 3] |  |  |  |  | reduction of the response to tactile stimuli that indicate tactile allodynia ([4]; 30 minutes after drug): able to reduce the response to the tactile stimuli; percent reversal of allodynic pain ([4]; i.p. 1 mg/kg): 32%; percent reversal of allodynic pain ([4]; i.p. 3 mg/kg): 26%; percent reversal of allodynic pain ([4]; i.p. dose of 0.3 mg/kg): 34%; reduction in the exploratory activity of the rats (sedation) (Sprague-Dawley rats; 1 mg/kg i.p.): none of the compounds caused a statistically significant reduction; visceral pain, patient report (patient two): significant alleviation; allodynia resulting from shingles, patient report (patient one): markedly reduced
OCCNC(=S)NCc1ccccc1F [FORMULA 4] |  |  |  |  | analgesic activity (tactile allodynia) ([4]; i.p., doses up to 3 mg/kg, 30 minutes after drug): no analgesic activity; reduction in the exploratory activity of the rats (sedation) (Sprague-Dawley rats; 3 mg/kg i.p.): none of the compounds caused a statistically significant reduction

The next lines start with results.

EC50 [1] [nM] | EC50 [2] [nM] | efficacy or intrinsic activity (value in parentheses) Alpha 2B [2] | EC50 [3] [nM] | SMILES | further results
≥ 210000 | 380 | 0.93 | ≥ 210000 | OCCNC(=S)NCc1c(Cl)cccc1Cl | 
≥ 210000 | 117 | 1.13 | > 2000 | OCCNC(=S)NCc1cc(Br)cc(Cl)c1F | 
≥ 210000 | 16 | 0.82 | 457 | OCCNC(=S)NCc1cccc(Cl)c1F [drawing 20] | efficacy or intrinsic activity (value in parentheses) Alpha 2C ([3]; ratio of maximal effect to that of standard full agonist brimonidine): 0.37
